Structures are written as SMILES. pIC50: −log10 of the molar value.

The first assay concerns IL-1β release, THP-1 cells. Description: IL-1β release assay in differentiated THP-1 cells stimulated with BzATP (Example 9). The format is cell-based. The conditions noted are these: Homo sapiens; 0.3 μM compound ("+" symbols); differentiated THP-1 cells, 250 uM BzATP; read-out: IL-1β% Inhib. @ 0.3 or 0.1 μM. The procedure, abridged:
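THP-1 cells differentiated 16 h with 100 ng/mL LPS + 100 ng/mL IFN-γ, re-primed 2 h with fresh LPS 100 ng/mL, pretreated 30 min with compound, then stimulated with BzATP 250 uM final for 45 min. Supernatant IL-1β by ELISA; background-adjusted % inhibition, IC50 from four-parameter logistic fit.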
On to `O=C(Cc1cccc(C(F)(F)F)c1F)Nc1c(Cl)ccc2c1CCN(C(=O)COc1ccccc1)C2` [Compound 3152], for which the inhibition at 0.3 µM fell in the range of 0 to 25%.

Take `COc1cccc(C(=O)N2CCc3c(ccc(Cl)c3NC(=O)Cc3cccc(C(F)(F)F)c3F)C2)c1` [Compound 3153]: the inhibition at 0.3 µM lay in the range of 0 to 25%.

Turning to `O=C(Cc1cccc(C(F)(F)F)c1F)Nc1c(Cl)ccc2c1CCN(C(=O)c1ccc(F)cc1)C2` [Compound 3154], the inhibition at 0.3 µM was in the range of 0 to 25%.

On to `CC(C)(C)C(=O)N1CCc2c(ccc(Cl)c2NC(=O)Cc2cccc(C(F)(F)F)c2F)C1` [Compound 3155], for which the inhibition at 0.3 µM was in the range of 0 to 25%.

Consider `O=C(Cc1cccc(C(F)(F)F)c1F)Nc1c(Cl)ccc2c1CCN(C(=O)c1cccc(Cl)c1)C2` [Compound 3156], for which the inhibition at 0.3 µM lay in the range of 0 to 25%.

Turning to `CCC(C(=O)N1CCc2c(ccc(Cl)c2NC(=O)Cc2cccc(C(F)(F)F)c2F)C1)c1ccccc1` (stereo not shown) [Compound 3157], the inhibition at 0.3 µM fell in the range of 0 to 25%.

Regarding `CC(C)CC(=O)N1CCc2c(ccc(Cl)c2NC(=O)Cc2cccc(C(F)(F)F)c2F)C1` [Compound 3158], the inhibition at 0.3 µM was in the range of 0 to 25%.

On to `CN(C)c1ccc(C(=O)N2CCc3c(ccc(Cl)c3NC(=O)Cc3cccc(C(F)(F)F)c3F)C2)cc1` [Compound 3159], for which the inhibition at 0.3 µM lay in the range of 0 to 25%.

For `O=C(Cc1cccc(C(F)(F)F)c1F)Nc1c(Cl)ccc2c1CCN(C(=O)COCc1ccccc1)C2` [Compound 3160], the inhibition at 0.3 µM was 0 to 25%.

`N#Cc1ccc(C(=O)N2CCc3c(ccc(Cl)c3NC(=O)Cc3cccc(C(F)(F)F)c3F)C2)cc1` [Compound 3161]: the inhibition at 0.3 µM was in the range of 0 to 25%.

As for `O=C(Cc1cccc(C(F)(F)F)c1F)Nc1c(Cl)ccc2c1CCN(C(=O)C1CC1c1ccccc1)C2` (stereo not shown) [Compound 3162], the inhibition at 0.3 µM was 26 to 50%.

Consider `O=C(Cc1cccc(C(F)(F)F)c1F)Nc1c(Cl)ccc2c1CCN(C(=O)c1ccc(Cl)cc1Cl)C2` [Compound 3163], for which the inhibition at 0.3 µM fell in the range of 26 to 50%.

With `O=C(Cc1cccc(C(F)(F)F)c1F)Nc1c(Cl)ccc2c1CCN(C(=O)C1CCC1)C2` [Compound 3164], the inhibition at 0.3 µM lay in the range of 0 to 25%.

Turning to `O=C(Cc1cccc(C(F)(F)F)c1F)Nc1c(Cl)ccc2c1CCN(C(=O)C1CC1)C2` [Compound 3165], the inhibition at 0.3 µM lay within 0 to 25%.

On to `O=C(Cc1cccc(C(F)(F)F)c1F)Nc1c(Cl)ccc2c1CCN(C(=O)CC1CCCC1)C2` [Compound 3166], for which the inhibition at 0.3 µM was in the range of 0 to 25%.

For `O=C(Cc1cccc(C(F)(F)F)c1F)Nc1c(Cl)ccc2c1CCN(C(=O)COc1ccc(Cl)cc1)C2` [Compound 3167], the inhibition at 0.3 µM lay in the range of 26 to 50%.

`O=C(Cc1cccc(C(F)(F)F)c1F)Nc1c(Cl)ccc2c1CCN(C(=O)Cc1ccc(Cl)cc1)C2` [Compound 3168]: the inhibition at 0.3 µM was in the range of 0 to 25%.

For the compound `O=C(Cc1cccc(C(F)(F)F)c1F)Nc1c(Cl)ccc2c1CCN(C(=O)c1ccc(C(F)(F)F)cc1F)C2` [Compound 3169], the inhibition at 0.3 µM fell in the range of 0 to 25%.

Consider `O=C(Cc1cccc(C(F)(F)F)c1F)Nc1c(Cl)ccc2c1CCN(C(=O)c1ccccc1C(F)(F)F)C2` [Compound 3170], for which the inhibition at 0.3 µM lay within 0 to 25%.

Take `Cc1ccc(F)c(C(=O)N2CCc3c(ccc(Cl)c3NC(=O)Cc3cccc(C(F)(F)F)c3F)C2)c1Cl` [Compound 3171]: the inhibition at 0.3 µM was in the range of 0 to 25%.

For the compound `Cc1nn(-c2ccccc2)nc1C(=O)N1CCc2c(ccc(Cl)c2NC(=O)Cc2cccc(C(F)(F)F)c2F)C1` [Compound 3172], the inhibition at 0.3 µM was 0 to 25%.

Consider `O=C(Cc1cccc(C(F)(F)F)c1F)Nc1c(Cl)ccc2c1CCN(C(=O)C1COc3ccccc3O1)C2` (stereo not shown) [Compound 3174], for which the inhibition at 0.3 µM fell in the range of 0 to 25%.

Consider `O=C(Cc1cccc(C(F)(F)F)c1F)Nc1c(Cl)ccc2c1CCN(C(=O)c1ccc(F)cc1F)C2` [Compound 3175], for which the inhibition at 0.3 µM was in the range of 0 to 25%.

Regarding `Cc1ccccc1C(=O)N1CCc2c(ccc(Cl)c2NC(=O)Cc2cccc(C(F)(F)F)c2F)C1` [Compound 3176], the inhibition at 0.3 µM lay in the range of 0 to 25%.

With `O=C(Cc1cccc(C(F)(F)F)c1F)Nc1c(Cl)ccc2c1CCN(C(=O)c1cc(F)ccc1F)C2` [Compound 3177], the inhibition at 0.3 µM lay in the range of 0 to 25%.

With `O=C(Cc1cccc(C(F)(F)F)c1F)Nc1c(Cl)ccc2c1CCN(C(=O)c1ccccc1F)C2` [Compound 3178], the inhibition at 0.3 µM was in the range of 0 to 25%.

Turning to `O=C(Cc1cccc(C(F)(F)F)c1F)Nc1c(Cl)ccc2c1CCN(C(=O)c1cccc(Cl)c1Cl)C2` [Compound 3179], the inhibition at 0.3 µM was 26 to 50%.

As for `Cc1cc(C(=O)N2CCc3c(ccc(Cl)c3NC(=O)Cc3cccc(C(F)(F)F)c3F)C2)no1` [Compound 3180], the inhibition at 0.3 µM is 0 to 25%.

With `Cc1cc(C(=O)N2CCc3c(ccc(Cl)c3NC(=O)Cc3cccc(C(F)(F)F)c3F)C2)nn1C` [Compound 3181], the inhibition at 0.3 µM is 0 to 25%.

In the case of `O=C(Cc1cccc(C(F)(F)F)c1F)Nc1c(Cl)ccc2c1CCN(C(=O)/C=C/c1ccccc1)C2` [Compound 3182], the inhibition at 0.3 µM is 0 to 25%.

`Cc1ccc(C(=O)N2CCc3c(ccc(Cl)c3NC(=O)Cc3cccc(C(F)(F)F)c3F)C2)cc1` [Compound 3183]: the inhibition at 0.3 µM was in the range of 0 to 25%.

For `COc1ccccc1C(=O)N1CCc2c(ccc(Cl)c2NC(=O)Cc2cccc(C(F)(F)F)c2F)C1` [Compound 3184], the inhibition at 0.3 µM was in the range of 0 to 25%.

Take `O=C(Cc1cccc(C(F)(F)F)c1F)Nc1c(Cl)ccc2c1CCN(C(=O)c1cccc3ccccc13)C2` [Compound 3185]: the inhibition at 0.3 µM lay in the range of 0 to 25%.

For the compound `CCCC(=O)N1CCc2c(ccc(Cl)c2NC(=O)Cc2cccc(C(F)(F)F)c2F)C1` [Compound 3187], the inhibition at 0.3 µM was 0 to 25%.

On to `CC(C)(C)c1ccc(C(=O)N2CCc3c(ccc(Cl)c3NC(=O)Cc3cccc(C(F)(F)F)c3F)C2)cc1` [Compound 3188], for which the inhibition at 0.3 µM is at least 76%.

Take `O=C(Cc1cccc(C(F)(F)F)c1F)Nc1c(Cl)ccc2c1CCN(C(=O)c1ccc3ccccc3n1)C2` [Compound 3189]: the inhibition at 0.3 µM is 0 to 25%.

As to `O=C(Cc1cccc(C(F)(F)F)c1F)Nc1c(Cl)ccc2c1CCN(C(=O)c1ccncc1)C2` [Compound 3190], the inhibition at 0.3 µM was in the range of 0 to 25%.

In the case of `COc1ccc(C(=O)N2CCc3c(ccc(Cl)c3NC(=O)Cc3cccc(C(F)(F)F)c3F)C2)cc1OC` [Compound 3193], the inhibition at 0.3 µM was in the range of 0 to 25%.

Consider `O=C(Cc1cccc(C(F)(F)F)c1F)Nc1c(Cl)ccc2c1CCN(C(=O)CCC1CCCCC1)C2` [Compound 3194], for which the inhibition at 0.3 µM was in the range of 26 to 50%.

As for `O=C(Cc1cccc(C(F)(F)F)c1F)Nc1c(Cl)ccc2c1CCN(C(=O)c1cc(Cl)cc(Cl)c1)C2` [Compound 3195], the inhibition at 0.3 µM was 0 to 25%.

On to `O=C(Cc1cccc(C(F)(F)F)c1F)Nc1c(Cl)ccc2c1CCN(C(=O)c1ccc(C(F)(F)F)nc1)C2` [Compound 3196], for which the inhibition at 0.3 µM was 0 to 25%.

For `O=C(Cc1cccc(C(F)(F)F)c1F)Nc1c(Cl)ccc2c1CCN(C(=O)c1ccc(Oc3ccccc3)nc1)C2` [Compound 3197], the inhibition at 0.3 µM lay in the range of 0 to 25%.

Staying with this assay, now noted: Homo sapiens; THP-1 cells, BzATP 250 uM, four parameter logistic fit.
A word on the pIC50: it is the negative decadic logarithm of the IC50, by convention in mol/L. Read a high pIC50 as a small IC50. In turn, `CC(=O)N1CCc2c(ccc(C)c2NC(=O)Cc2ccc(C(F)(F)F)c(F)c2)C1` [Compound 3201] gave a pIC50 of 6.76.

For the compound `CCC(=O)N1CCc2c(ccc(C)c2NC(=O)Cc2ccc(C(F)(F)F)c(F)c2)C1` [Compound 3203], the negative logarithm of the IC50 (pIC50) was 7.07.

`Cc1ccc2c(c1NC(=O)Cc1ccc(C(F)(F)F)c(F)c1)CCN(C(=O)CCC1CCCC1)C2` [Compound 3207] gave a pIC50 of 6.69.

Regarding `Cc1ccc2c(c1NC(=O)Cc1ccc(C(F)(F)F)c(F)c1)CCN(C(=O)C1CCCC1)C2` [Compound 3208], the negative logarithm of the IC50 (pIC50) was 7.22.

Regarding `Cc1ccc2c(c1NC(=O)Cc1ccc(C(F)(F)F)c(F)c1)CCN(C(=O)C(C)C)C2` [Compound 3215], the negative-log IC50 (pIC50) is 7.31.

`Cc1ccc2c(c1NC(=O)Cc1ccc(C(F)(F)F)c(F)c1)CCN(C(=O)C(C)(C)C)C2` [Compound 3220] had a pIC50 of 7.59.

In the case of `Cc1ccc2c(c1NC(=O)Cc1ccc(C(F)(F)F)c(F)c1)CCN(C(=O)CCC1CCCCC1)C2` [Compound 3251], the pIC50 is 7.21.

As for `O=C(Cc1ccc(C(F)(F)F)c(F)c1)Nc1cccc2c1CCN(CC(O)Cc1ccccc1)C2` (stereo not shown) [Compound 3257], the pIC50 is 6.37.

`CCS(=O)(=O)N1CCc2c(ccc(Cl)c2NC(=O)Cc2ccc(C(F)(F)F)c(F)c2)C1` [Compound 3272] showed a pIC50 of 7.29.

Take `O=C(Cc1ccc(C(F)(F)F)c(F)c1)Nc1c(Cl)ccc2c1CCN(S(=O)(=O)c1ccccc1Cl)C2` [Compound 3287]: the negative logarithm of the IC50 (pIC50) is 7.22.

Take `CC(C)S(=O)(=O)N1CCc2c(ccc(Cl)c2NC(=O)Cc2ccc(C(F)(F)F)c(F)c2)C1` [Compound 3304]: the pIC50 was 7.15.

The compound `O=C(Cc1cccc(C(F)(F)F)c1F)Nc1c(Cl)ccc2c1CCN(S(=O)(=O)C1CC1)C2` [Compound 3313] showed a pIC50 of 7.46.

`CCCCS(=O)(=O)N1CCc2c(ccc(Cl)c2NC(=O)Cc2cccc(C(F)(F)F)c2F)C1` [Compound 3327]: the pIC50 is 7.33.

The compound `Cc1ccc2c(c1NC(=O)Cc1ccc(C(F)(F)F)c(F)c1)CCN(S(=O)(=O)CC(F)(F)F)C2` [Compound 3406] gave a pIC50 of 6.97.

Take `Cc1ccc2c(c1NC(=O)Cc1ccc(C(F)(F)F)c(F)c1)CCN(S(=O)(=O)C(C)C)C2` [Compound 3414]: the negative-log IC50 (pIC50) is 7.08.

In turn, `Cc1ccc2c(c1NC(=O)Cc1ccc(C(F)(F)F)c(F)c1)CCN(S(=O)(=O)c1c(F)cccc1F)C2` [Compound 3425] had a pIC50 of 7.11.

`CCS(=O)(=O)N1CCc2c(ccc(C)c2NC(=O)Cc2ccc(C(F)(F)F)c(F)c2)C1` [Compound 3433] gave a pIC50 of 7.60.

Turning to `CCCCS(=O)(=O)N1CCc2c(ccc(C)c2NC(=O)Cc2ccc(C(F)(F)F)c(F)c2)C1` [Compound 3448], the pIC50 is 7.18.

`COc1ccc(OC)c(S(=O)(=O)N2CCc3c(ccc(C)c3NC(=O)Cc3ccc(C(F)(F)F)c(F)c3)C2)c1` [Compound 3452] had a negative logarithm of the IC50 (pIC50) of 7.55.

The record behind these values is patent publication US20100298285A1, “Biclycloheteroaryl Compounds as P2x7 Modulators and Uses Thereof” (priority 2006, published 2010).
